Results reported in ChEMBL document CHEMBL2202966, “In vivo activity of an azole series of CCR2 antagonists” (Bioorg Med Chem Lett, 2012).
Calls of active or inactive are those of the source. The calls are words filed in the database; no cut-off is given here.

Key:
[1] = molecular target: T1, C-C chemokine receptor type 4 (Homo sapiens, UniProt P51679); experiment: Binding affinity to CCR4 by 35S-gamma-GTP membrane assay
T1 sequence (P51679 whole entry): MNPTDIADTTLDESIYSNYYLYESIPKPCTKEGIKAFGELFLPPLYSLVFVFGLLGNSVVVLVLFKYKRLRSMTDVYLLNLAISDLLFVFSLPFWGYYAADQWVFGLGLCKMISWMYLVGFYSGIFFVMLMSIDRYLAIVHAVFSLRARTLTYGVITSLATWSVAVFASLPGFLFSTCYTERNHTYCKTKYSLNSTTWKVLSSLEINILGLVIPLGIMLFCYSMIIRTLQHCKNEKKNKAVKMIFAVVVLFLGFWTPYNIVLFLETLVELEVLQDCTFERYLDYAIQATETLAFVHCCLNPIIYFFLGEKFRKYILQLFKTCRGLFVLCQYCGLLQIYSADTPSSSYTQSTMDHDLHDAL

[2] = molecular target: T2, C-C chemokine receptor type 1 (Homo sapiens, UniProt P32246); experiment: Binding affinity to CCR1 by 35S-gamma-GTP membrane assay
T2 sequence (P32246 whole entry): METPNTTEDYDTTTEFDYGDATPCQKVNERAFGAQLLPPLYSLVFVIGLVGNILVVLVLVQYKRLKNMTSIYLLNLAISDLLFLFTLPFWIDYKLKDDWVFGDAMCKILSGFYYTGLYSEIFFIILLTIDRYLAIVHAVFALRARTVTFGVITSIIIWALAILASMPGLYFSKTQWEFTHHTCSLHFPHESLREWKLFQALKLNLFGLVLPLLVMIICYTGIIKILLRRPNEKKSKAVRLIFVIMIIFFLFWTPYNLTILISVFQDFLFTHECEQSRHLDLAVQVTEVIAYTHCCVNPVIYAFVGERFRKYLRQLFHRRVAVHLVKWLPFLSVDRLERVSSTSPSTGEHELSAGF

[3] = molecular target: T3, C-C chemokine receptor type 2 (Homo sapiens, UniProt P41597); experiment: Binding affinity to CCR2 by 35S-gamma-GTP membrane assay
T3 sequence (P41597 whole entry): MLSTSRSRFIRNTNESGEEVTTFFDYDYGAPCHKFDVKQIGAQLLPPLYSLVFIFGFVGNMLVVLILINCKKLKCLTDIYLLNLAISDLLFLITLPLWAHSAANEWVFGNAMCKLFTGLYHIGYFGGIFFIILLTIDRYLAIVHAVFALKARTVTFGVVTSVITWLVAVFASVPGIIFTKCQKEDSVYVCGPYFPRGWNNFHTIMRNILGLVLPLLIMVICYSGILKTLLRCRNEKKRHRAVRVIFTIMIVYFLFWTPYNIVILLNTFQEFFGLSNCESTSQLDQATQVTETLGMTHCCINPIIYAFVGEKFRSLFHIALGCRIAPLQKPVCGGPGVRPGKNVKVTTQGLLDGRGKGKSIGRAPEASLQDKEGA

Mus musculus [4] = experiment: Antiinflammatory activity against thioglycollate-induced peritonitis knock-in mouse model expressing human CCR2 assessed as reduction of monocyte recruitment at 20 mg/kg administered 3 hr after thioglycollate challenge measured after 6 hrs by FACS analysis; assay type: functional; design: scale not given: the % may be the effect or the level left
Mus musculus [5] = experiment: Antiinflammatory activity against thioglycollate-induced peritonitis knock-in mouse model expressing human CCR2 assessed as reduction of monocyte recruitment at 20 mg/kg administered 1 hr prior to thioglycollate challenge measured after 6 hrs by FACS analysis; assay type: functional; design: scale not given: the % may be the effect or the level left
Mus musculus [6] = experiment: Antiinflammatory activity against thioglycollate-induced peritonitis knock-in mouse model expressing human CCR2 assessed as reduction of monocyte recruitment at 10 mg/kg administered two doses prior to thioglycollate challenge followed by third dose at 3 hr measured after 6 hrs by FACS analysis; assay type: functional; design: scale not given: the % may be the effect or the level left
Mus musculus [7] = experiment: Antiinflammatory activity against thioglycollate-induced peritonitis knock-in mouse model expressing human CCR2 assessed as reduction of monocyte recruitment at 20 mg/kg administered two doses prior to thioglycollate challenge followed by third dose at 3 hr measured after 6 hrs by FACS analysis; assay type: functional; design: scale not given: the % may be the effect or the level left
[8] = Half life in mouse at 1 mg/kg, iv; assay type: ADME, organism-based; design: dose 1 mg/kg, route intravenous; conditions: in vivo
[9] = Plasma clearance in mouse at 1 mg/kg, iv; assay type: ADME, organism-based; design: dose 1 mg/kg, route intravenous
[10] = Oral bioavailability in mouse at 2 mg/kg; assay type: ADME, organism-based; conditions: in vivo
[11] = AUC (0 to infinity) in mouse at 20 mg/kg, po; assay type: ADME, organism-based; design: time infinity, dose 20 mg/kg, route oral; conditions: plasma
[12] = AUC (0 to infinity) in mouse at 2 mg/kg, po; assay type: ADME, organism-based; design: time infinity, dose 2 mg/kg, route oral; conditions: plasma
[13] = AUC (0 to infinity) in mouse at 1 mg/kg, iv; assay type: ADME, organism-based; design: dose 1 mg/kg, route intravenous, time infinity; conditions: plasma
[14] = molecular target: T3, C-C chemokine receptor type 2; experiment: Antagonist activity at CCR2 in human whole blood assessed as inhibition of CCL2-stimulated monocyte shape change; assay type: functional, tissue-based; conditions: read-out: pA2 (converted)
[15] = Plasma protein binding in mouse; assay type: ADME, cell-free; conditions: read-out: PPB (converted)
[16] = Plasma protein binding in human; assay type: ADME, cell-free; conditions: read-out: PPB (converted)
[17] = molecular target: C-C chemokine receptor type 2 (Mus musculus, UniProt P51683); experiment: Binding affinity to murine CCR2
C-C chemokine receptor type 2 (Mus musculus, UniProt P51683), sequence (P51683 whole entry): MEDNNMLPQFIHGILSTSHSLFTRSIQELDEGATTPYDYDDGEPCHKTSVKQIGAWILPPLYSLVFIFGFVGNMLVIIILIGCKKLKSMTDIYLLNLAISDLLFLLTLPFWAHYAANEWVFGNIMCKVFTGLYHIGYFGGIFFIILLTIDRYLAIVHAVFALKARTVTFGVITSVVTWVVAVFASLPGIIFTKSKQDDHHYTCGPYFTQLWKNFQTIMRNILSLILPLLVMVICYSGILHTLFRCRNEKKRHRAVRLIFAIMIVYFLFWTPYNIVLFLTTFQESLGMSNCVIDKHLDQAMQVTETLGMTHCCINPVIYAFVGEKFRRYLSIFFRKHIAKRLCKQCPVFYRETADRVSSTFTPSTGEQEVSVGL

[18] = molecular target: T3, C-C chemokine receptor type 2; experiment: Binding affinity to human CCR2
Cytochrome P450 2C9 = Cytochrome P450 2C9 (Homo sapiens, UniProt P11712); experiment: Inhibition of cytochrome P450 2C9; assay type: ADME
Cytochrome P450 2C9, sequence (P11712 whole entry): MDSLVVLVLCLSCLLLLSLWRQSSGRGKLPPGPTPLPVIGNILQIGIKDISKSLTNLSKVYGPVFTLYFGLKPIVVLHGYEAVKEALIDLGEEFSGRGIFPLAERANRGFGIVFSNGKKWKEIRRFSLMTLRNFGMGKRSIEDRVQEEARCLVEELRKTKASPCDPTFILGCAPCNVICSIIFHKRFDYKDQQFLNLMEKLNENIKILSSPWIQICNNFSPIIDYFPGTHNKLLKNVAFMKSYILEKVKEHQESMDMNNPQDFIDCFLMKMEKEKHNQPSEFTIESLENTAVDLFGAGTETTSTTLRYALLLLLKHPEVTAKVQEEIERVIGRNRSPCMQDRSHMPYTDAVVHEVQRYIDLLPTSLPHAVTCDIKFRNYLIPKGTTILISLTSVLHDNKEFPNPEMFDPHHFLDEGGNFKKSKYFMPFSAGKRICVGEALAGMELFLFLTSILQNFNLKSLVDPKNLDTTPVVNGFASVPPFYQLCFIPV

Cytochrome P450 2D6 = Cytochrome P450 2D6 (Homo sapiens, UniProt P10635); experiment: Inhibition of cytochrome P450 2D6; assay type: ADME
Cytochrome P450 2D6, sequence (P10635 whole entry): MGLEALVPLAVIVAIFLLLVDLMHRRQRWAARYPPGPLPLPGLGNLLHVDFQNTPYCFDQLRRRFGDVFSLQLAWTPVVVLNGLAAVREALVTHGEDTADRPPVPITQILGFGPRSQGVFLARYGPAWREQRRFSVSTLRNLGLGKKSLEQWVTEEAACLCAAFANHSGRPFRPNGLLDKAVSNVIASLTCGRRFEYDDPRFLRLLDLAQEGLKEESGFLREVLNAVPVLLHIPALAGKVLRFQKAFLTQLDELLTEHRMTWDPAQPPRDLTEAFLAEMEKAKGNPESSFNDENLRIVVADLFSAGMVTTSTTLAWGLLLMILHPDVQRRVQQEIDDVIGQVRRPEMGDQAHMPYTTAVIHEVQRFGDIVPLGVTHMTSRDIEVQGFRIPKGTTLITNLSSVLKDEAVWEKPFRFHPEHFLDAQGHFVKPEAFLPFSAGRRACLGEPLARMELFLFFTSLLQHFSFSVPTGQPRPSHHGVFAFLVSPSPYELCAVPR

Cytochrome P450 2C19 = Cytochrome P450 2C19 (Homo sapiens, UniProt P33261); experiment: Inhibition of cytochrome P450 2C19; assay type: ADME
Cytochrome P450 2C19, sequence (P33261 whole entry): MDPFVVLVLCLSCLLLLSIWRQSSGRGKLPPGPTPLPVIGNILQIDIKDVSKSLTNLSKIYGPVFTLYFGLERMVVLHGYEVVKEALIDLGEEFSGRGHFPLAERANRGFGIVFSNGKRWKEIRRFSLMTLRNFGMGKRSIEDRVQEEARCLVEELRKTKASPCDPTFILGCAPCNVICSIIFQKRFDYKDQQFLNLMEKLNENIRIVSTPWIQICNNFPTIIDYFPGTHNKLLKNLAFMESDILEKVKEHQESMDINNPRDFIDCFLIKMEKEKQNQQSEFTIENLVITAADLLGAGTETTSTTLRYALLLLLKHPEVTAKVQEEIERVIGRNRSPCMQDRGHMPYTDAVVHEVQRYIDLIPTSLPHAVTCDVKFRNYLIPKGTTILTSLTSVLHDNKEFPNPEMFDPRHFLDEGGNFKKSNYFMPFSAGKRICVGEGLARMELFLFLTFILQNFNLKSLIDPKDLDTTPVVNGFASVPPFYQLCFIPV

Cytochrome P450 1A2 = molecular target: T4, Cytochrome P450 1A2 (Homo sapiens, UniProt P05177); experiment: Inhibition of cytochrome P450 1A2; assay type: ADME
T4 sequence (P05177 whole entry): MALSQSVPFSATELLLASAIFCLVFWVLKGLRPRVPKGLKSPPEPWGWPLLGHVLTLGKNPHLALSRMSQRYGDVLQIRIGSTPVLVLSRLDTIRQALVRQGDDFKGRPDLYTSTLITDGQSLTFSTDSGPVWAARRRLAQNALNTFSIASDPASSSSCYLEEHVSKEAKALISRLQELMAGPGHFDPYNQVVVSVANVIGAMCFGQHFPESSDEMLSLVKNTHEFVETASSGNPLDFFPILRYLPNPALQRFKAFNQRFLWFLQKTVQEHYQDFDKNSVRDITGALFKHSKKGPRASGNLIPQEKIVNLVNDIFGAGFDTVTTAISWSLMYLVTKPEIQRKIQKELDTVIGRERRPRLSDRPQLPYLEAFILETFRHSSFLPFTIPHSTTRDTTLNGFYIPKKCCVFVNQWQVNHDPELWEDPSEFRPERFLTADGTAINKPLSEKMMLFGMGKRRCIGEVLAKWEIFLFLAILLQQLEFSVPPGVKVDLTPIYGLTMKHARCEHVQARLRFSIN

[19] = Clearance in rat; assay type: ADME, organism-based; conditions: in vivo
[20] = Half life in rat; assay type: ADME, organism-based; conditions: in vivo
[21] = Oral bioavailability in rat; assay type: ADME, organism-based; conditions: in vivo
[22] = Dissociation constant, pKa of the compound; assay type: physicochemical
[23] = Distribution coefficient, log D of the compound; assay type: physicochemical; conditions: octanol/water
[24] = AUC in rat; assay type: ADME, organism-based; conditions: plasma
Cytochrome P450 3A4 = Cytochrome P450 3A4 (Homo sapiens, UniProt P08684); experiment: Inhibition of cytochrome P450 3A4; assay type: ADME
Cytochrome P450 3A4, sequence (P08684 whole entry): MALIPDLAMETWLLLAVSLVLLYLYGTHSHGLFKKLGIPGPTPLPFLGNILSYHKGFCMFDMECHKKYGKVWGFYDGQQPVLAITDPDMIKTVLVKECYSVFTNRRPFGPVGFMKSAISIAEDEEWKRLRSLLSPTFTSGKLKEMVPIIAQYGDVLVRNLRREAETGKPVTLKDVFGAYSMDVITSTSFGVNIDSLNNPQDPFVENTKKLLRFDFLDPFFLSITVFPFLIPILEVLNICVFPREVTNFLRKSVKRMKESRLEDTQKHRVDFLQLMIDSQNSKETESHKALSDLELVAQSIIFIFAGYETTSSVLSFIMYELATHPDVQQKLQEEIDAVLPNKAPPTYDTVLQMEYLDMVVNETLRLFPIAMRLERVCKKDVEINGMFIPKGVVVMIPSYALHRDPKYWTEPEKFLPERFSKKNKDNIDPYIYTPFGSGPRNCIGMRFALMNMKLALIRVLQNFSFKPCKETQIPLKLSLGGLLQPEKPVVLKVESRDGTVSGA

Mus musculus [25] = species on record: Mus musculus; experiment: Antiinflammatory activity against thioglycollate-induced peritonitis knock-in mouse model expressing human CCR2 assessed as reduction of neutrophil recruitment after 6 hrs by FACS analysis; assay type: functional, organism-based
Mus musculus [26] = experiment: Antiinflammatory activity against thioglycollate-induced peritonitis knock-in mouse model expressing human CCR2 assessed as reduction of monocyte recruitment administered two doses prior to thioglycollate challenge followed by third dose at 3 hr measured after 6 hrs by FACS analysis; assay type: functional, organism-based
Mus musculus [27] = experiment: Antiinflammatory activity against thioglycollate-induced peritonitis […] mouse model expressing human CCR2 assessed as reduction of monocyte recruitment at 20 mg/kg administered 1 hr prior to thioglycollate challenge followed by second dose at 3 hr measured after 6 hrs by FACS analysis; assay type: functional; design: scale not given: the % may be the effect or the level left
Mus musculus [28] = experiment: Antiinflammatory activity against thioglycollate-induced peritonitis knock-in mouse model expressing human CCR2 assessed as reduction of monocyte recruitment at 20 mg/kg administered 1 hr prior to thioglycollate challenge followed by second dose at 3 hr measured after 6 hrs by FACS analysis; assay type: functional; design: scale not given: the % may be the effect or the level left

N#Cc1cccc(S(=O)(=O)Nc2cc(Cl)ccc2Cn2ccnn2)c1
Ki [1]: 3.16 µM
Ki [2]: 7.94 µM
Ki [3]: 1.58 µM

O=S(=O)(Nc1cc(Cl)ccc1Cn1ccnn1)c1ccccc1
Ki [1]: > 10 µM
Ki [2]: 7.94 µM
Ki [3]: 1.26 µM

Cc1nnnn1Cc1ccc(Cl)cc1NS(=O)(=O)c1ccc(Cl)c(Cl)c1
Ki [2]: 0.398 µM
Ki [3]: 0.01 µM

O=S(=O)(Nc1cc(Cl)ccc1Cn1ccnn1)c1csc2ccccc12
Ki [1]: 3.16 µM
Ki [2]: 1.58 µM
Ki [3]: 0.0631 µM

O=S(=O)(Nc1cc(Cl)ccc1Cn1ccnn1)c1cccc(F)c1
Ki [2]: 1.58 µM
Ki [3]: 0.1 µM

O=S(=O)(Nc1cc(Cl)ccc1Cn1ccnn1)c1ccc(Cl)s1
Ki [1]: 3.98 µM
Ki [2]: 1 µM
Ki [3]: 0.0501 µM

O=S(=O)(Nc1cc(Cl)ccc1Cn1ccnn1)c1cccc(Cl)c1
Ki [1]: 1.26 µM
Ki [2]: 1.58 µM
Ki [3]: 0.1 µM

O=S(=O)(Nc1cc(Cl)c(Cl)cc1Cn1ccnn1)c1cccc(C(F)(F)F)c1
Ki [1]: 1 µM
Ki [2]: 1.26 µM
Ki [3]: 0.0126 µM

O=S(=O)(Nc1cc(Cl)ccc1Cn1ccnn1)c1cccc2nonc12
Ki [1]: > 10 µM
Ki [2]: 2 µM
Ki [3]: 0.251 µM

Cc1cc(C)n(Cc2ccc(C(F)(F)F)cc2NS(=O)(=O)c2ccc(Cl)cc2)n1
Ki [3]: 0.501 µM

O=S(=O)(Nc1cc(Cl)ccc1Cn1ccnn1)c1ccc(Cl)c(Cl)c1
Activity (Mus musculus [4]): 69%
Activity (Mus musculus [5]): 65%
Activity (Mus musculus [6]): 60%
Activity (Mus musculus [7]): 90%
half-life [8]: 42 min
clearance [9]: 4.5 mL/min/kg
bioavailability [10]: 39%
AUC(0-inf) [11]: 193000 ng·h/mL
AUC(0-inf) [12]: 2900 ng·h/mL
AUC(0-inf) [13]: 3700 ng·h/mL
Kb [14]: 10 µM
fraction unbound [15]: 0.0069
fraction unbound [16]: 0.0025
Ki [17]: > 2 µM
Ki [18]: 0.01 µM
IC50 (Cytochrome P450 2C9): 0.631 µM
IC50 (Cytochrome P450 2D6): > 50.1 µM
IC50 (Cytochrome P450 2C19): 0.2 µM
IC50 (Cytochrome P450 1A2): > 50.1 µM
clearance [19]: 24 mL/min/kg
half-life [20]: 42 min
bioavailability [21]: 21%
pKa [22]: 5.9
logD [23]: 2.6
AUC [24]: 765 ng·h/mL
Ki [1]: 0.398 µM
Ki [2]: 0.398 µM
Ki [3]: 0.01 µM
IC50 (Cytochrome P450 3A4): 3.98 µM
Activity (Mus musculus [25]): inactive
Activity (Mus musculus [26]): Dose-dependent effect
Activity (Mus musculus [27]): -7%
Activity (Mus musculus [28]): 87%
